Read-outs that look alike come from different tables or passages of the source.
Test system: diarrhea-predominant IBS subjects
Type: in vivo, human
Conditions: for Number of subjects who died / Primary reason for withdrawal: Adverse event and lack of efficacy / Primary reason for withdrawal: Baseline complaint/adverse event: 2 mg TID
Procedure: The study was performed in approximately 150 study centers. Approximately 1600 eligible subjects were to be given cilansetron 2 mg TID. At Visit 1, pre-treatment assessments were conducted. […] Subjects were to return to the study site one month later for Visit 3 (Day 31) for their first interim assessment. […] All subjects who discontinued from the study were to have the same post-study assessments required at Visit 7 performed at their early termination visit. […]
Stool specimens were analyzed at every visit for occult blood. An independent GERB had been established to provide advice on GI AEs during the course of the study.
Adverse events were assessed at Baseline, at each clinic visit, and at the end of the study (Month 12 or the early termination visit). All AEs, which occurred during the study were followed up in accordance with good medical practice until resolved or judged no longer clinically significant, or if a condition was chronic, until fully characterized. Adverse events could occur in the specified follow-up period and, regardless of the interval since the last administration of the study medication, were treated in the same manner as an AE which occurred during the treatment with study medication. Each AE was evaluated for duration, severity, seriousness, and causal relationship to the investigational drug. The action taken and the outcome were also recorded.
Specifically, subjects who were lost to follow-up and had no post-Baseline contact with the site were excluded from the Safety population. The subjects who discontinued from the study due to lost to follow-up were identified based on the information collected on the study termination CRF page.
After the pretreatment assessment at Visit 1 (Days […] to −3), subjects were to return to the study site for a Baseline assessment and start the treatment at Visit 2 (Day 1).
For the by time-interval analyses of disposition, prevalence of AEs, and of markedly abnormal and predefined changes in laboratory values, vital signs, and ECGs, the following interval windows were used:
Adverse events that were already present prior to the first dose of cilansetron study medication but increased in severity afterwards were considered as treatment-emergent.
The 5% cutoff point was based on the incidence within higher level terms.
Subjects were counted at most once for each primary system organ class and preferred term. Serious AEs that resolved prior to receiving study medication or occurred more than 30 days after the last dose of study medication were not included in the incidence tables. A listing of all SAEs is presented; SAEs with onset prior to receiving study medication or more than 30 days after discontinuation of study medication were flagged. The listing presents lower level term and preferred term of the SAE, severity, action taken, outcome, and relationship of the SAE, start and stop date of the SAE, study day of onset of the SAE, age, race, and sex.

[1] = Cilansetron 2 mg, N=1454, % of appropriate gender
[2] = Study 3008, 2 mg TID (N = 1454)
[3] = Study 3008, of subjects who received study medication
[4] = TEAE incidence, 2 mg, Safety Population, HLT
[5] = TEAE incidence, 2 mg, Safety Population, PT

Cc1nccn1C[C@H]1CCc2c(c3cccc4c3n2CCC4)C1=O [cilansetron, (R)-(−)-4,5,6,8,9,10-hexahydro-10-[(2-methyl-1H-imidazol-1-yl)methyl]-11H-pyrido-[3,2,1-jk]-carbazol-11-one]
42%: overall incidence of TEAEs possibly, probably, or unlikely related to study medication (Study 3008)
36 (2%) n (%): Upper Respiratory Tract Signs and Symptoms [4]
Sixty-four: subjects with at least one TEAE (Study 3008)
38 (3%) n (%): TEAE incidence: flatulence (Cilansetron 2 mg, N=1454) | Asthenic Conditions [4]
18 (1%) n (%): Bladder and Urethral Symptoms [4] | Supraventricular Arrhythmias [4]
931 (64) n (%): Number of subjects with at least one TEAE [2]
10 (<1%) n (%): Bronchospasm and Obstruction [4] | Nasal Congestion and Inflammations [4] | Non-Site Specific Injuries NEC [4]
138 (9) n (%): Number of subjects with at least one severe TEAE [2]
931 (64%) n (%): Total Number of Subjects with at Least One TEAE (Cilansetron 2 mg, N=1454)
25 (2%) n (%): TEAE incidence: Vomiting NOS (Cilansetron 2 mg, N=1454) | TEAE incidence: White Blood Cell Analyses (Cilansetron 2 mg, N=1454) | TEAE incidence: sinusitis NOS (Cilansetron 2 mg, N=1454)
54%: special interest TEAEs (Study 3008)
28 (2%) n (%): Coughing and Associated Symptoms [4] | Depressive Disorders [4]
(5) %: Primary reason for withdrawal: Baseline complaint/adverse event [3]
15 (1%) n (%): Appetite Disorders [4]
11 (<1%) n (%): TEAE incidence: Triglyceride Analyses (Cilansetron 2 mg, N=1454) | Anorexia [5]
75 n: Primary reason for withdrawal: Baseline complaint/adverse event (Study 3008)
12 (<1%) n (%): Muscle Pains [4] | Anxiety [5]
Thirteen: TEAEs that led to permanent discontinuation of study medication (Study 3008)
Six: subjects with a treatment emergent SAE (Study 3008)
789 (54) n (%): Number of subjects with at least one AE of special interest [2]
13 (<1%) n (%): TEAE incidence: Weight Increased (Cilansetron 2 mg, N=1454) | Rashes, Eruptions and Exanthems NEC [4]
5 (<1%) n (%): TEAE incidence: Vaginal Candidiasis* [1] | Cardiac Signs and Symptoms NEC [4] | Nasal Disorders NEC [4] | Non-Site Specific Procedural Complications [4]
85 (6) n (%): Number of subjects with at least one SAE [2]
14 (<1%) n (%): General Signs and Symptoms NEC [4] | Muscle, Tendon and Ligament Injuries [4] | Pruritus NEC [4]
9 (<1%) n (%): Elevated Cholesterol [4]
1 (<1) n (%): Number of deaths [2]
20 (1%) n (%): TEAE incidence: Urinalysis NEC (Cilansetron 2 mg, N=1454) | Disturbances in Initiating and Maintaining Sleep [4] | Febrile Disorders [4] | Pain and Discomfort NEC [4]
6 (<1%) n (%): Alopecias [4] | Arthropathies NEC [4] | Papulosquamous Conditions [4] | Paranasal Sinus Disorders (Excl Infections and Neoplasms) [4] | Soft Tissue Disorders NEC [4] | Asthma NOS [5]
78 (5%) n (%): TEAE incidence: nausea (Cilansetron 2 mg, N=1454)
(<1) %: Number of subjects who died [3]
13%: withdrawal for AEs (combined categories) (Study 3008)
(8) %: Primary reason for withdrawal: Adverse event and lack of efficacy [3]
16 (1%) n (%): Dermatitis and Eczema [4]
2%: TEAEs that led to dose reduction (Study 3008)
2 (<1%) n (%): TEAE incidence: Tremor (Cilansetron 2 mg, N=1454) | TEAE incidence: Tremor (Excl Congenital) (Cilansetron 2 mg, N=1454) | TEAE incidence: Urine Bilirubin Increased (Cilansetron 2 mg, N=1454) | TEAE incidence: Urine Ketone Body Present (Cilansetron 2 mg, N=1454) | TEAE incidence: White Blood Cells Urine Positive (Cilansetron 2 mg, N=1454) | TEAE incidence: Vaginitis* [1] | Acnes [4] | Affect Alterations NEC [4] | Benign and Malignant Breast Neoplasms* [4] | Coronary Artery Disorders NEC [4] | Erection and Ejaculation Conditions and Disorders* [4] | Fluctuating Mood Symptoms [4] | Menopausal Effects NEC* [4] | Menstruation with Increased Bleeding* [4] | Myocardial Disorders NEC [4] | Ovarian and Fallopian Tube Cysts and Neoplasms* [4] | Parasomnias [4] | Pelvic Prolapse* [4] | Renal Lithiasis [4] | Reproductive Tract Signs and Symptoms NEC [4] | Rheumatoid Arthropathies [4] | Sexual Desire Disorders [4] | Sleep Disorders NEC [4] | Spondyloarthropathies [4] | Thoracic Cage Fractures and Dislocations [4] | Urinary Tract Lithiasis (Excl Renal) [4] | Water Soluble Vitamin Deficiencies [4] | Acute Myocardial Infarction [5] | Amenorrhoea NOS* [5] | Angina Pectoris [5] | Animal Bite [5] | Appetite Decreased NOS [5] | Appetite Increased NOS [5] | Arthropod Sting [5] | Asthenia [5] | Asthma Aggravated [5] | Atrial Fibrillation [5] | Back Pain Aggravated [5] | Bradycardia NOS [5] | Breast Cyst* [5] | Breast Pain* [5] | Calculus Renal NOS [5] | Calculus Ureteric [5] | Catarrh [5]
119 n: Primary reason for withdrawal: Adverse event and lack of efficacy (Study 3008)
8 (<1%) n (%): Apocrine and Eccrine Gland Disorders [4] | Elevated Triglycerides [4] | Muscle Related Signs and Symptoms NEC [4] | Rate and Rhythm Disorders NEC [4] | Urinary Abnormalities [4] | Urinary Tract Signs and Symptoms NEC [4]
40 (3%) n (%): TEAE incidence: back pain (Cilansetron 2 mg, N=1454)
100 (7%) n (%): TEAE incidence: headache NOS (Cilansetron 2 mg, N=1454)
156 (11%) n (%): TEAE incidence: abdominal pain NOS (Cilansetron 2 mg, N=1454)
44 (3%) n (%): TEAE incidence: nasopharyngitis (Cilansetron 2 mg, N=1454)
92 (6%) n (%): TEAE incidence: nausea and vomiting symptoms (Cilansetron 2 mg, N=1454)
12%: withdrawal for lack of efficacy (combined categories) (Study 3008)
1 (<1%) n (%): TEAE incidence: Transient Cerebrovascular Events (Cilansetron 2 mg, N=1454) | TEAE incidence: Transient Global Amnesia (Cilansetron 2 mg, N=1454) | TEAE incidence: Transient Ischaemic Attack (Cilansetron 2 mg, N=1454) | TEAE incidence: Urethritis Non-Specific (Cilansetron 2 mg, N=1454) | TEAE incidence: Vasovagal Attack (Cilansetron 2 mg, N=1454) | TEAE incidence: Vitamin Analyses (Cilansetron 2 mg, N=1454) | TEAE incidence: Vitamin B12 Decreased (Cilansetron 2 mg, N=1454) | TEAE incidence: White Blood Cell Count Increased (Cilansetron 2 mg, N=1454) | TEAE incidence: Oophoritis* [1] | TEAE incidence: Pelvic Inflammatory Disease NOS* [1] | TEAE incidence: Vulvovaginitis Trichomonal* [1] | Anxiety Disorders NEC (Incl Obsessive Compulsive Disorder) [4] | Bladder Disorders NEC [4] | Breast Disorders NEC* [4] | Bursal Disorders [4] | Cartilage Disorders [4] | Cervix Disorders NEC* [4] | Chest and Lung Injuries NEC [4] | Connective Tissue Disorders (Excl Le) [4] | Dissociative States [4] | Erythemas [4] | Extremity Deformities [4] | Eye Injuries NEC [4] | Fear Symptoms [4] | Food Malabsorption and Intolerance Syndromes (Excl Sugar Intolerance) [4] | Heart Failure Signs and Symptoms [4] | Increased Physical Activity Levels [4] | Menopausal Effects on the Genitourinary Tract* [4] | Mental Disorders NEC [4] | Mood Alterations with Depressive Symptoms [4] | Oedema NEC [4] | Photosensitivity Conditions [4] | Purine Metabolism Disorders NEC [4] | Renal Neoplasms [4] | Reproductive Tract Disorders NEC (Excl Neoplasms) [4] | Respiratory Tract Disorders NEC [4] | Rosaceas [4] | Scalar Conditions [4] | Sebaceous Gland Disorders [4] | Skin Neoplasms Benign [4] | Skin Preneoplastic Conditions NEC [4] | Skin and Subcutaneous Tissue Ulcerations [4] | Sodium Imbalance [4] | Structural and Obstructive Urethral Disorders (Excl Congenital) [4] | Thermal Burns [4] | Total Fluid Volume Increased [4] | Connective Tissue Disorders (TEAE incidence, 2 mg, Safety Population, HLT (skin SOC)) | Abrasion NOS [5] | Acne Aggravated [5] | Acne NOS [5] | Affect Lability [5] | Alopecia [5] | Alopecia Areata [5] | Anal Injury [5] | Ankle Fracture [5] | Anxiety Aggravated [5] | Anxiety Disorder [5] | Arthralgia Aggravated [5] | Arthritis NOS [5] | Atrial Fibrillation Aggravated [5] | Atrial Flutter [5] | Atrial Hypertrophy [5] | Atrioventricular Block NOS [5] | Axillary Pain [5] | Bloody Discharge [5] | Breast Engorgement* [5] | Breast Tenderness* [5] | Bursitis [5]
1 n: Number of subjects who died (Study 3008)
192 (13) n (%): Number of subjects who permanently discontinued study medication due to a TEAE [2]
26 (2%) n (%): Anxiety Symptoms [4]
222 (15%) n (%): TEAE incidence: constipation (Cilansetron 2 mg, N=1454)
17 (1%) n (%): Site Specific Injuries NEC [4]
9%: severe TEAEs (Study 3008)
4 (<1%) n (%): TEAE incidence: White Blood Cell Count Decreased (Cilansetron 2 mg, N=1454) | TEAE incidence: Female Reproductive Tract Infections* [1] | Breast Signs and Symptoms* [4] | Cardiac Conduction Disorders [4] | Dermal and Epidermal Conditions NEC [4] | Diabetes Mellitus (Incl Subtypes) [4] | Hyperglycaemic Conditions NEC [4] | Limb Injuries NEC (Incl Traumatic Amputation) [4] | Lower Limb Fractures and Dislocations [4] | Menstruation with Decreased Bleeding* [4] | Metabolic Bone Disorders [4] | Osteoarthropathies [4] | Panic Disorders [4] | Potassium Imbalance [4] | Prostatic signs, Symptoms and Disorders NEC* [4] | Urticarias [4]
7 (<1%) n (%): TEAE incidence: Vascular Tests NEC (Incl Blood Pressure) (Cilansetron 2 mg, N=1454) | Breathing Abnormalities [4] | Ischaemic Coronary Artery Disorders [4] | Upper Limb Fractures and Dislocations [4]
29 (2%) n (%): Arthralgia [5]
91 (6%) n (%): TEAE incidence: flatulence, bloating and distension (Cilansetron 2 mg, N=1454)
31 (2%) n (%): Joint Related Signs and Symptoms [4]
3 (<1%) n (%): TEAE incidence: Viraemia NOS Present (Cilansetron 2 mg, N=1454) | TEAE incidence: Weight Decreased (Cilansetron 2 mg, N=1454) | TEAE incidence: White Blood Cells Urine (Cilansetron 2 mg, N=1454) | General Nutritional Disorders NEC [4] | Hyperlipidaemias NEC [4] | Intervertebral Disc Disorders NEC [4] | Menstruation and Uterine Bleeding NEC* [4] | Skin Injuries and Mechanical Dermatoses [4] | Tendon Disorders [4] | Ventricular Arrhythmias and Cardiac Arrest [4] | Back Injury NOS [5] | Benign Prostatic Hyperplasia* [5] | Bundle Branch Block Right [5]
604 (42) n (%): Number of subjects with at least one related TEAE [2]
34 (2) n (%): Number of subjects with at least one TEAE leading to dose reduction [2]

Source: US20070093520A1, “Method of treatment of diarrhea-predominant irritable bowel syndrome in a subject” (priority 2005, published 2007)
